Tested on: Escherichia coli
Assay: detection of viable microbes in solid food (namul of spinach) with added Escherichia coli, CFDA and Phenol Red solutions at various pH
Format: cell-based
Conditions: pH 5 of the CFDA solution and the Phenol Red solution
Procedure: In a second example, detection of live microbes was conducted using solid food (namul of spinach) to which Escherichia coli were added. The treatment to extract the microbes from the solid food into liquid was carried out referring to “A Guide to Food Sanitation Test, Volume on Microorganisms” (in Japanese; published by Japan Food Hygiene Association, 1990). Ten grams of the solid food (namul of spinach) to which Escherichia coli (about 10^7) was added was aliquoted into a stomacher bag. (The stomacher bag is made of flexible plastic film such as polyethylene and sterilized by radiation. There is a compartment inside the stomacher bag created by a partition of non-woven fabric or a plastic film with a pore size of about 0.28 mm diameter, and a liquid component can be extracted excluding relatively large solid bodies from the compartment. The aliquot of the solid food is supplied with 90 mL of sterile phosphate buffer saline and crushed and dispersed using a stomacher. A stomacher is an apparatus for extracting live microbes contained in food to liquid. In the stomacher, the stomacher bag containing food is placed between a fixed plate and a paddle and the food is crushed and dispersed by squeezing the bag containing food while moving the paddle back and forth. […] Using the liquid, viable microbes were detected in a procedure similar to that in Example 1. […]

With carboxyfluorescein diacetate [CFDA] the “staining of viable microbes with the fluorescent dye” value was “the viable microbes were not stained with the fluorescent dye”.
